Source: patent US12370258B2, “PD-1 and CTLA-4 dual inhibitor peptides” (priority 2017, dated 2025)
Ends that are not written are not given here.

What was measured:
[1] = tested on: B16-F-10 mouse melanoma; assay: B16-F10 mouse melanoma lung metastasis model; assay type: in vivo, C57/BL6 mice; conditions: for number of tumor nodules, difference versus no treatment saline (one-way ANOVA, p<0.05) / reduction of lung metastasis (tumor nodules) relative to no treatment saline: Table 1B study, i.v., days 1, 2, 4, 6, 8, 12
[2] = target: T1, human PD-1 (Homo sapiens, UniProt Q15116); assay: BIACORE binding of peptide LD01 to human PD-1; conditions: immobilized peptide; single analyte concentration 290 nM; 25° C.
Description: (§1) BIACORE® assays were carried out using a BIACORE® T-200 at 25° C. The assay and regeneration buffers contained 10 mM HEPES (pH 7.4), 150 mM NaCl, 3 mM EDTA, and 0.05% P20. The immobilization buffer was 10 mM sodium acetate, pH 5.0. The flow rate used for immobilizing the ligand was 5 μl/min. The flow rate for kinetics analysis was 30 μl/min.
(§2) Scouting. […] The un-occupied sites were blocked with 1M ethanol amine. Scouting was performed at a single analyte concentration of 290 nM to confirm yes/no binding. Flow cell 1 was kept blank and used for reference subtraction. Binding of analyte to the ligand was monitored in real time.
(§3) Full Kinetics. Based on the scouting results, full kinetics was performed at analyte concentration of 100 nM, followed by serial dilution to 50, 25, 12.5, 6.25, 3.125, 1.562 and 0 nM concentration or as indicated. KD was determined from the observed kon (on rate) and koff (off rate) or by steady state equilibrium kinetics for the interactions with fast off rate.
(§4) Chi square (χ^2) analysis was carried out between the actual Sensorgram and the sensorgram generated from the BIAnalysis software to determine the accuracy of the analysis. χ^2 value within 1-2 is considered significant (accurate) and below 1 is highly significant (highly accurate).
Target sequence in this assay (Q15116 25-288): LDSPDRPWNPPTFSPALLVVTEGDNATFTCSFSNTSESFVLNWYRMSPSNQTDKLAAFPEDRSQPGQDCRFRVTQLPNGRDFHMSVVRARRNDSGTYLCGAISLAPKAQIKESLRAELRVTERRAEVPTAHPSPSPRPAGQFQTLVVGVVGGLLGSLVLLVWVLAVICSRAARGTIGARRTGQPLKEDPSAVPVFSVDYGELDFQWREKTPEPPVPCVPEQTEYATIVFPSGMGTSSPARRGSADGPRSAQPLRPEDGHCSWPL

[3] = target: T2, mouse PD-1 (Mus musculus, UniProt Q02242); assay: BIACORE binding of peptide LD01 to mouse PD-1; conditions: immobilized peptide; 25° C.
T2 sequence (Q02242 25-288): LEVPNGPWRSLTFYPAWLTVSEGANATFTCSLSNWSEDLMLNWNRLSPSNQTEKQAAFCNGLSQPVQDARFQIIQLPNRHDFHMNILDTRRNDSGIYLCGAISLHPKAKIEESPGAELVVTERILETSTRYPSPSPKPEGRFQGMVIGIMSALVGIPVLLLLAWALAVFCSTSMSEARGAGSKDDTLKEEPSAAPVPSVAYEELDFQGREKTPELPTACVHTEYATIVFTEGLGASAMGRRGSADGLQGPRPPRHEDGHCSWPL
Description: as §1, §2, §3, §4

[4] = target: T3, human PD-1 expressed on the surface of Jurkat cells (Homo sapiens, UniProt Q15116); assay: Binding of PD-L1-Fc fusion protein to human PD-1 on Jurkat cells (flow cytometry); assay type: cell-based; conditions: varying peptide concentrations, 1 hour pre-incubation; increasing dose-response trend
T3 construct: host or cells: Jurkat
T3 sequence (Q15116 25-288): as the sequence (Q15116 25-288) above
Description: A human T cell line (Jurkat) stably expressing human PD-1 on its surface was purchased from Promega. This cell line was cultured using sterile techniques and maintained in log-phase growth. PD-1 protein expression levels were measured using an anti-human PD-1 antibody labeled with allophycocyanin (APC) for quality assessment.
For the experiment, 200 μL of 2.5*10^5 cells were plated in staining buffer into a microtiter plate. […] After another wash step, the cells were incubated with anti-human Fc labeled with AF647 for 30 minutes. After several washes, the mean fluorescence intensity due to PD-L1-Fc binding to PD-1 was measured by flow cytometry.

[5] = target: T1, human PD-1; assay: Binding of PD-L1-Fc to PD-1 in a cell-free plate assay; conditions: plates coated with peptide; 1 μg/mL PD-1
Description: The plates were washed and blocked with 1% BSA for 1 hour at room temperature. The plates were then incubated with 100 μL of 1 μg/mL PD-1 at room temperature for 1 hour. The plates were again washed and incubated with PD-L1 at room temperature for 1 hour. After another round of washes, the plates were incubated with anti-human IgG-HRP. After incubation for 1 hour and washes, the HRP was detected by incubating with TMB substrate, and the OD were read on a microplate reader.
Target sequence in this assay (Q15116 25-167 limits assumed): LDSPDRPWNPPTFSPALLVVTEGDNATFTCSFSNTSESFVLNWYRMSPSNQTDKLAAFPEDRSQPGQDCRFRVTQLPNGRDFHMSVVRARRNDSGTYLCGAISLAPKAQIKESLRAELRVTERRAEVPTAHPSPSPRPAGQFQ
Target sequence in this assay (Q9NZQ7 19-238 partner limits assumed): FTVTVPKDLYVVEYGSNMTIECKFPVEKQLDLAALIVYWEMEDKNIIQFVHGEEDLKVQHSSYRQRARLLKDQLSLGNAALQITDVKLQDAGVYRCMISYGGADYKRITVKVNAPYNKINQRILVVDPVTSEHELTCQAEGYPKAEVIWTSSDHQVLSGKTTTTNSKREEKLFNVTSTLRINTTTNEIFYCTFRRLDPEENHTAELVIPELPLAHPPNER

[6] = tested on: mouse splenocytes; assay: Anti-CD3-stimulated mouse splenocyte proliferation (CFSE); assay type: cell-based; conditions: 1, 5, 25 μM peptide; 1 μg/mL anti-CD3; presence and absence of exogenously added PD-L1-Fc; 3 days
Description: PD-L1-Fc fusion protein is hypothesized to reduce anti-CD3 induced splenocyte proliferation.
Carboxyfluorescein diacetate succinimidyl ester (CFSE)-labeled mouse splenocytes (400,000 cells, 5 μM CFSE) were stimulated using 1 μg/mL anti-CD3 antibody and varying levels of PD-L1-Fc or an irrelevant control Fc. […] The CFSE dilution profiles were analyzed by flow cytometry after 3 days of treatment.

[7] = tested on: CSP-specific, IFNγ-secreting CD8+ T cells; assay: Immunogenicity of AdPyCSP malaria vaccine (ELISPOT); assay type: in vivo, Balb/c mice; conditions: for increase in number of CSP-specific, IFNγ-secreting CD8 T cells relative to AdPyCSP alone: 200 μg i.p. days 0, 1, 3, 5, 7, day 12
Description: Balb/c mice were immunized intramuscularly with 10^10 virus particles of a recombinant replication defective adenovirus expressing the Plasmodium yoelli circumsporozoite protein (AdPyCSP).
The negative control peptide used in this study was the ovalbumin (OVA) peptide ([…], SEQ ID NO:34). At day 12 post immunization, mice were euthanized, individual spleens removed, and the number of splenic CSP-specific, IFNγ-secreting CD8^+ T cells were determined by ELISPOT assay. For the ELISPOT assay splenocytes were stimulated with the peptide […] (SEQ ID NO:35), an H-2Kd-restricted CD8^+ T cell epitope of PyCSP.
Peptides LD01, LD10da, and LD16da were tested as described above, this time using peptide LD12 (cohort 2) as the negative control. Test sample, route of treatment and treatment days are detailed in Table 2B.
At day 12 post immunization, mice were euthanized, individual spleens removed, and the number of splenic CSP-specific, IFNγ-secreting CD8^+ T cells were determined by ELISPOT assay. For the ELISPOT assay splenocytes were stimulated with the peptide […] (SEQ ID NO:35), an H-2Kd-restricted CD8^+ T cell epitope of PyCSP.

[8] = tested on: CD1 mice with intra-abdominal peritonitis induced by cecal ligation and puncture (CLP); assay: Mouse sepsis model (CLP), survival; assay type: in vivo; conditions: 200 μg intraperitoneally at 6, 24, and 48 hours after CLP surgery
Description: CD1 mice were anesthetized, a midline abdominal incision made, the cecum was ligated and punctured, and then the incision closed.

[9] = tested on: IFNγ-secreting T cells; assay: Mouse sepsis model (CLP), splenic IFNγ-secreting T cells by ELISPOT; assay type: in vivo, mice; conditions: treated at 6, 24, 48, 72 and 96 hours after CLP, anti-CD3 and anti-CD28 stimulation
Description: Twenty-four hours later, mice were euthanized, individual spleens were removed, and the number of splenic IFNγ-secreting T cells were determined by ELISPOT assay. For the ELISPOT assay splenocytes were stimulated via anti-CD3 and anti-CD28. Shown in FIG. 14 is the number of IFNγ-secreting T cells per 2×10^5 splenocytes.

[10] = tested on: human PBMCs; assay type: cell-based; conditions: 72 hours

## CC[C@H](C)[C@H](NC(=O)[C@H](CCC(N)=O)NC(=O)CNC(=O)[C@@H](NC(=O)[C@H](CO)NC(=O)[C@H](N)[C@H](C)O)[C@@H](C)O)C(=O)N[C@@H](CO)C(=O)N[C@H](C(=O)N[C@@H](CC(C)C)C(=O)N[C@@H](CCCNC(=N)N)C(=O)N[C@H](C(=O)N[C@@H](CC(N)=O)C(=O)N[C@H](C(=O)N[C@H](C(=O)N[C@@H](C)C(=O)N1CCC[C@H]1C(=O)N[C@@H](CC(C)C)C(=O)N[C@@H](CO)C(=O)N[C@@H](CCC(N)=O)C(N)=O)[C@@H](C)O)[C@@H](C)CC)C(C)C)[C@@H](C)O [LD01 TQ19 da/LD16 da]
[1]
  number of tumor nodules, difference versus no treatment saline (one-way ANOVA, p<0.05): Significant differences
  reduction of lung metastasis (tumor nodules) relative to no treatment saline: ~30%

## CC[C@H](C)[C@H](NC(=O)[C@H](CCC(N)=O)NC(=O)CNC(=O)[C@@H](NC(=O)[C@H](CO)NC(=O)[C@@H](NC(=O)[C@H](CCCNC(=N)N)NC(=O)[C@H](CCCNC(=N)N)NC(=O)[C@@H](N)CS)[C@@H](C)O)[C@@H](C)O)C(=O)N[C@@H](CO)C(=O)N[C@H](C(=O)N[C@@H](CC(C)C)C(=O)N[C@@H](CCCNC(=N)N)C(=O)N[C@H](C(=O)N[C@@H](CC(N)=O)C(=O)N[C@H](C(=O)N[C@H](C(=O)N[C@@H](C)C(=O)N1CCC[C@H]1C(=O)N[C@@H](CC(C)C)C(=O)N[C@@H](CO)C(=O)N[C@@H](CCC(N)=O)C(N)=O)[C@@H](C)O)[C@@H](C)CC)C(C)C)[C@@H](C)O [LD01]
[2]
  binding to human PD-1 (BIACORE, yes/no): binds
[3]
  binding to mouse PD-1 (BIACORE, single concentration and kinetics): binds
[4]
  effect on binding of human PD-L1-Fc fusion protein to human PD-1-expressing Jurkat cells: enhances binding
[5]
  effect on binding of human PD-L1-Fc fusion protein to human PD-1 in a cell-free assay: enhances binding
[6]
  effect on proliferation of anti-CD3 stimulated mouse splenocytes: enhances proliferation
[1]; Table 1A study, Cohorts 3 and 4 (20 μg and 200 μg i.v., days 1, 2, 4, 6, 8, 12), day 14
  reduction of lung metastasis (tumor nodules) relative to no treatment: ~50%
[1]
  number of tumor nodules, difference versus no treatment saline (one-way ANOVA, p<0.05): Significant differences
  reduction of lung metastasis (tumor nodules) relative to no treatment saline: ~30%
[7]; Table 2A study, 200 μg i.p.
  immunogenicity compared with anti-PD-1 or -PD-L1 antibody (Cohort 4 and 5): slightly above
[7]; Table 2A study
  increase in number of CSP-specific, IFNγ-secreting CD8 T cells relative to AdPyCSP alone: ~2 fold
[7]; Table 2B study
  increase in number of CSP-specific, IFNγ-secreting CD8 T cells relative to AdPyCSP alone: ~1.5 fold
[8]
  survival rate: 70%
[9]
  number of splenic IFNγ-secreting T cells relative to the control peptide: increase
[10]
  increase in IFN-γ secretion relative to SEB alone: 4 fold

## RRTSPGQISTLRVNITAPLSQ [LD02]
[8]
  survival rate: 30%

## CC[C@H](C)[C@H](NC(=O)[C@H](CCC(N)=O)NC(=O)CNC(=O)[C@@H](NC(=O)[C@H](N)CO)[C@@H](C)O)C(=O)N[C@@H](CO)C(=O)N[C@H](C(=O)N[C@@H](CC(C)C)C(=O)N[C@@H](CCCNC(=N)N)C(=O)N[C@H](C(=O)N[C@@H](CC(N)=O)C(=O)N[C@H](C(=O)N[C@H](C(=O)N[C@@H](C)C(=O)N1CCC[C@H]1C(=O)N[C@@H](CC(C)C)C(=O)N[C@@H](CO)C(=O)N[C@@H](CCC(N)=O)C(N)=O)[C@@H](C)O)[C@@H](C)CC)C(C)C)[C@@H](C)O [LD10da]
[7]; Table 2B study, 200 μg i.p.
  immunogenicity compared with α-PD-1 mAb (Cohort 6): slightly above
